# From publication PMC6516043, “Functional Analysis of the Chemosensory Protein GmolCSP8 From the Oriental Fruit Moth, Grapholita molesta (Busck) (Lepidoptera: Tortricidae)” (Frontiers in Physiology, 2019)
# Read-outs that look alike come from different tables or passages of the source.
# Experiments:
# [1] = molecular target: T1, rGmolCSP8 (Grapholita molesta, UniProt A0A0M4FML8); assay: Fluorescence competitive binding assay (1-NPN displacement), wild-type; details: for binding to rGmolCSP8 (in words): wild-type rGmolCSP8, pH 7.4
# T1 sequence (A0A0M4FML8 entry or part of it): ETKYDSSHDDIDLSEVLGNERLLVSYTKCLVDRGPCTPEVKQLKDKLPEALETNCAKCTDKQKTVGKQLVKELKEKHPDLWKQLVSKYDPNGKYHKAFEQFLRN
# Procedure: The fluorescence spectra were recorded using a fluorescence spectrophotometer (F-4500, Hitachi, Tokyo, Japan) in a 1 cm light path fluorimeter quartz cuvette with 10 nm slits for excitation and 20 nm slits for emission. […] The fluorescent probe N-phenyl-1-naphthylamine (1-NPN) and all putative ligands used in binding assays were dissolved in methanol (HPLC purity grade) to obtain a 1 mM stock solution. The rGmolCSP8 protein was diluted to in 20 mM Tris–HCl to obtain a 2 μM solution, pH 7.4. […] The fluorescent probe was excited at 337 nm and emission spectra were recorded from 370 to 550 nm. […] Binding data were obtained from three replicates assays for each concentration of each tested ligand.
# [2] = molecular target: GmolCSP8-L30A (Grapholita molesta, UniProt A0A0M4FML8, L45A); assay: biochemical; assay type: binding; details: for binding to mutant L30A (in words): mutant L30A compared with wild-type
# GmolCSP8-L30A, sequence (A0A0M4FML8 entry or part of it L45A): as the sequence (A0A0M4FML8 entry or part of it) above, with L30A counted along it
# Procedure: (§1) To determine whether GmolCSP8 is involved in odorant binding, fluorescence competitive binding assays were performed ([Zhong et al., 2012]). The fluorescence spectra were recorded using a fluorescence spectrophotometer (F-4500, Hitachi, Tokyo, Japan) in a 1 cm light path fluorimeter quartz cuvette with 10 nm slits for excitation and 20 nm slits for emission. The selected chemicals are listed in Table 2, and included four sex pheromone components and 34 volatiles from different host plants (peach and pear trees) of G. molesta based on previous investigations ([Natale et al., 2004]; [Lu et al., 2012]; [Najar-Rodriguez et al., 2013b]). The fluorescent probe N-phenyl-1-naphthylamine (1-NPN) and all putative ligands used in binding assays were dissolved in methanol (HPLC purity grade) to obtain a 1 mM stock solution. The rGmolCSP8 protein was diluted to in 20 mM Tris–HCl to obtain a 2 μM solution, pH 7.4. To measure the binding affinity of 1-NPN for GmolCSP8, a 2 μM solution of protein was titrated with aliquots of 1 mM 1-NPN prepared to final concentrations ranging from 1 to 22 μM. The fluorescent probe was excited at 337 nm and emission spectra were recorded from 370 to 550 nm. […] Binding data were obtained from three replicates assays for each concentration of each tested ligand. Dissociation constants (Kd) of protein to 1-NPN were calculated by non-linear regression, using GraphPad Prism 4.00 software (GraphPad Software Inc.). The inhibition constants (Ki) of the competitors were determined using the corresponding IC50 values (concentration of competitor that reduced the initial fluorescence intensity by half) based on the following equation: Ki = [IC50]/(1+[1-NPN]/K1-NPN), where [1-NPN] is the free concentration of 1-NPN and K1-NPN is the dissociation constant of the complex GmolCSP8/1-NPN.
# (§2) To verify the four predicted key amino acid sites of GmolCSP8 binding for 1-hexanol, recombinant plasmids for four CSP8 mutants were obtained via site-directed mutagenesis experiments. Specific primers introducing mutation sites of the four key amino acid CSP8 plasmids (GmolCSP8-T27A, GmolCSP8-L30A, GmolCSP8-V40A, and GmolCSP8-L80A) were designed and are listed in Table 1. The four mutants were mutated by using the TaKaRa MutanBEST Kit (TaKaRa, Shiga, Japan) with the pMD®19-T/GmolCSP8 plasmid DNA as template. All plasmids containing mutations were validated by sequencing with five randomly selected single colonies. pMD®19-T plasmids including four CSP8 mutants were digested with Bam HI and Hind III restriction enzymes. Then, the target sequences were ligated into the expression vector pET28a (+) and transformed into BL21 (DE3) competent cells for expression. After sequencing verification, the corresponding rGmolCSP8 mutant proteins were induced and purified, and the binding affinities to 1-hexanol and its analogs were verified via ligand-binding assays according to the method described above.
# [3] = molecular target: GmolCSP8-T27A (Grapholita molesta, UniProt A0A0M4FML8, T42A); assay: biochemical; assay type: binding
# GmolCSP8-T27A, sequence (A0A0M4FML8 entry or part of it T42A): as the sequence (A0A0M4FML8 entry or part of it) above, with T27A counted along it
# Procedure: as §1, §2
# [4] = molecular target: GmolCSP8-V40A (Grapholita molesta, UniProt A0A0M4FML8, V55A); assay: biochemical; assay type: binding
# GmolCSP8-V40A, sequence (A0A0M4FML8 entry or part of it V55A): as the sequence (A0A0M4FML8 entry or part of it) above, with V40A counted along it
# Procedure: as §1, §2
# [5] = molecular target: GmolCSP8-L80A (Grapholita molesta, UniProt A0A0M4FML8, L95A); assay: biochemical; assay type: binding
# GmolCSP8-L80A, sequence (A0A0M4FML8 entry or part of it L95A): as the sequence (A0A0M4FML8 entry or part of it) above, with L80A counted along it
# Procedure: as §1, §2
# [6] = molecular target: T1, rGmolCSP8; assay: Effect of pH on the binding affinity of rGmolCSP8
# Procedure: Based on the fluorescent binding assays described above, we further assessed the effects of pH on the binding abilities of GmolCSP8 with strongly bound ligand. The binding affinities of rGmolCSP8 to the representative ligand 1- hexanol were measured at six different pH values (4.0, 5.0, 6.8, 7.4, 8.0, and 8.8) in 20 mM Tris–HCl buffer. pH was adjusted by titrating concentrated hydrochloric acid using a PHS-3E pH meter (Shanghai Precision Scientific Instrument Co., Ltd., Shanghai, China). The binding assays and data processing were performed as described previously.
# FIGURE 7 Effects of pH on the binding affinities of rGmolCSP8 with 1-hexanol. The mixture solution of 2 μM rGmolCSP8 protein and 2 μM 1-NPN was titrated with 1 mM 1-hexanol stock solution to final concentrations of 22 μM. All data represent a mean of three independent measurements, and the bars denote mean ± SEM.
# [7] = 2 μM rGmolCSP8 and 2 μM 1-NPN, 20 mM Tris-HCl pH 7.4, read-out: IC50
# [8] = 2 μM rGmolCSP8 and 2 μM 1-NPN, pH 7.4, calculated from IC50, read-out: Ki
# [9] = read-out: Ki (μM) L30A, mutant L30A, – = lost ability to bind
# [10] = read-out: Ki (μM) T27A, mutant T27A, – = did not displace 50% 1-NPN at ligand up to 24 μM
compound,measurement,setting,value
C=C/C(C)=C/CCC(=C)C [α-Ocimene],IC50,[1]; [7],18.9 ± 1.29 µM
same,Ki,[1]; [8],17.6 ± 0.81 µM
CCCCOC(C)=O [Butyl acetate],IC50,[1],> 24 µM
same,Ki,[1],> 24 µM
CCCCCCCCCCO [1-decanol],IC50,[1]; [7],7.16 ± 0.58 µM
same,Ki,[1]; [8],6.6 ± 0.54 µM
same,binding to mutant L30A (in words),[2],lost its ability to bind
same,Ki,[2]; [9],> 24 µM
same,Ki,[3],12.7 ± 1.79 µM
same,fold decrease in binding vs wild-type,[3]; mutant T27A compared with wild-type rGmolCSP8,1.5- to 2.0 fold
same,Ki,[4],7.02 ± 0.47 µM
same,Ki,[5],6.32 ± 0.65 µM
CCCCCCCCCCCCCCO [1-tetradecanol],IC50,[1],> 24 µM
same,Ki,[1],> 24 µM
same,binding to rGmolCSP8 (in words),[1],unable to bind
CCC/C=C/CCCCCCCOC(C)=O [(E)-8-dodecenyl acetate],IC50,[1]; [7],> 24 µM
same,Ki,[1]; [8],> 24 µM
CC1=CCC2CC1C2(C)C (stereo not drawn) [α-Pinene],IC50,[1]; [7],> 24 µM
same,Ki,[1]; [8],> 24 µM
same,binding to rGmolCSP8 (in words),[1],cannot bind
CCCCCCCCCCCCCC [Tetradecane],IC50,[1]; [7],> 24 µM
same,Ki,[1]; [8],> 24 µM
CC/C=C\CC1C(=O)CCC1CC(=O)OC (stereo not shown) [Methyl jasmonate],IC50,[1]; [7],> 24 µM
same,Ki,[1]; [8],> 24 µM
CCCCCO [1-pentanol],IC50,[1]; [7],8.79 ± 0.99 µM
same,Ki,[1]; [8],8.18 ± 0.93 µM
same,binding to mutant L30A (in words),[2],lost its ability to bind
same,Ki,[2]; [9],> 24 µM
same,IC50,[3],> 24 µM
same,Ki,[3]; [10],> 24 µM
same,Ki,[4],12.4 ± 1.41 µM
same,Ki,[5],6.66 ± 0.64 µM
CCC/C=C\CCCCCCCOC(C)=O [(Z)-8-dodecenyl acetate],IC50,[1]; [7],> 24 µM
same,Ki,[1]; [8],> 24 µM
O=Cc1ccccc1 [Benzaldehyde],IC50,[1],> 24 µM
same,Ki,[1],> 24 µM
same,binding to rGmolCSP8 (in words),[1],cannot bind
CCCCCCC(=O)OCC [Ethyl heptanoate],IC50,[1]; [7],> 24 µM
same,Ki,[1]; [8],> 24 µM
CCCCCCCCCCCCCCC [Pentadecane],IC50,[1]; [7],> 24 µM
same,Ki,[1]; [8],> 24 µM
CCCCCCO [1-hexanol],IC50,[1],2.26 ± 0.34 µM
same,binding to rGmolCSP8 (in words),[1],strongest binding affinities
same,binding affinity (in words),[6]; pH 4.0,very weak affinity
same,effect of pH on binding affinity (in words),"[6]; pH 4.0, 5.0, 6.8, 7.4, 8.0, 8.8 in 20 mM Tris-HCl",higher at pH 6.8–8.0 than at pH 4.0–5.0 and 8.8
same,binding affinity (in words),[6]; pH 6.8–8.0,strong binding affinity
same,Ki,[2],12.5 ± 1.12 µM
same,fold decrease in binding vs wild-type,[2]; mutant L30A compared with wild-type rGmolCSP8,6 fold
same,IC50,[3],> 24 µM
same,binding to mutant T27A (in words),[3]; mutant T27A compared with wild-type,abolished the ability to bind
same,Ki,[3]; [10],> 24 µM
same,Ki,[4],2.67 ± 0.34 µM
same,Ki,[5],1.8 ± 0.15 µM
CCCCCC=O [Hexanal],IC50,[1]; [7],> 24 µM
same,Ki,[1]; [8],> 24 µM
same,binding to rGmolCSP8 (in words),[1],cannot bind
CCCCCCCC=O [Octanal],IC50,[1]; [7],> 24 µM
same,Ki,[1]; [8],> 24 µM
CC(C)CCO [3-methyl-1-butanol],IC50,[1]; [7],6.6 ± 0.45 µM
same,Ki,[1]; [8],6.32 ± 0.52 µM
CCCCCCCCCCCCCCCCCC [Octadecane],IC50,[1]; [7],> 24 µM
same,Ki,[1]; [8],> 24 µM
CCCC(=O)OCC [Ethyl butyrate],IC50,[1]; [7],> 24 µM
same,Ki,[1]; [8],> 24 µM
